Entries after “also recorded” stand apart in the source; their conditions may differ.
Tested on: SCD mice
Experiment: qFILM assessment of pulmonary vaso-occlusion in SCD mice IV administered oxy-Hb
Format: in vivo, mouse
Conditions: LDC7559 10 mg/kg, Z-VAD-FMK 0.004 μmol/kg
Text: Quantitative fluorescence intravital lung microscopy (qFILM) was used to assess the absence or presence of platelet-neutrophil aggregate mediated pulmonary vaso-occlusion. Pulmonary microcirculation (pseudo-colored purple), neutrophils (red) and platelets (pseudo-colored green) were labeled in vivo by IV administration of FITC dextran, AF546-anti-Ly6G Ab and V450-anti-CD49b Ab, respectively. […] White arrows denote the direction of blood flow within the pulmonary arterioles. Alveoli are marked with asterisks. Scale bars 20 μm. The diameter of pulmonary arteriole in B-E is ˜22 μm, 32 μm, 31.5 μm, and 31 μm, respectively. […] Refer Online Data Supplement for details. […] The data for mice with SCD IV administered 10 oxy-Hb (n=5 mice; 75 FOVs) are included as black bars in FIGS. 1N and 1O for relative comparison. qFILM FOV size ˜65 536 μm^2. Data represent mean ±SE and are compared using Student t test. *P<0.05 (FIG. 1P) Schematic showing the main findings of the study. The sterile inflammatory milieu (DAMPs, IFN-I signaling, and ROS) in SCD promotes caspase-4 (humans) or caspase-11 (mouse)-dependent cleavage of neutrophil GSDMD into the active form GSDMD-NT, leading to the shedding of NETs in the liver microcirculation. Once shed, these NETs are carried by the blood as cNETs to the lung, where they promote neutrophil-platelet aggregation in the pulmonary arterioles, leading to PVO and lung injury (acute chest syndrome).
Intravital lung microscopy (experimental scheme shown in FIG. 1A) was conducted in live mice to assess whether preventing liver-to-lung embolization of cNETs by inhibiting or deleting GSDMD-signaling leads to amelioration of pulmonary vaso-occlusion. Although large neutrophil-platelet aggregates (marked with dotted ellipses) were seen occluding the arteriolar bottle-necks, leading to impaired blood flow in the lung of SCD mice IV administered 10 μmole/kg oxy-Hb (FIG. 1B), such aggregates were rare in the lung of SCD mice IV administered 10 μmole/kg oxy-Hb with 0.004 μmol/kg pan-caspase inhibitor Z-VAD-FMK (FIG. 1C) or 10 mg/kg GSDMD-NT inhibitor LDC7559 (FIG. 1D) or 20 mg/kg GSDMD-NT inhibitor Necrosulfonamide (FIG. 1E). […] The twofold higher dose of 20 μmole/kg IV oxy-Hb also led to the development of lung vaso-occlusion in WT but not Gsdmd^−/− mice (FIG. 2). […] P-selectin deficiency led to an approximately 50% reduction in pulmonary vaso-occlusion in SCD-Selp^−/− mice administered 10 μmole/kg IV oxy-Hb (FIG. 3), however, IV administration of oxy-Hb with GSDMD-NT inhibitor (LDC7559) led to further threefold (significant) reduction in pulmonary vaso-occlusions per FOV (FIGS. 1N and 4A, and FIG. 5) and absence of large pulmonary vaso-occlusions (area>1000 μm^2) per FOV (FIG. 10) in SCD-Selp^−/− mice.
Quantitative fluorescence intravital lung microscopy (qFILM) has been used widely for in vivo assessment of pulmonary vasoocclusion in mice with SCD [Bennewitz M F et al., (2017); Vats R, Brzoska T, Bennewitz M F, et al. (2020); Vats R, Tutuncuoglu E, Pradhan-Sundd T, Tejero J, Shaw G D, Sundd P. (2020); Bennewitz M F, Tutuncuoglu E, Gudapati S, et al. (2020)] In the current study, qFILM was used to assess pulmonary vaso-occlusion and detect NETs in the intact lung microcirculation of live mice following IV challenge with saline, oxy-hemoglobin (oxy-Hb), hemin, or lipo-polysaccharide with or without pretreatment with N-terminus active domain (GSDMD-NT) inhibitors LDC7559 [Sollberger G, Choidas A, Burn G L, et al. (2018)], NSA [Rathkey J K, Zhao J, Liu Z, et al. (2018)], Disulfiram [Hu J J, Liu X, Xia S, et al. (2020)], or the pan-caspase inhibitor Z-VAD-FMK [Sollberger G, Choidas A, Burn G L, et al. (2018)], haptoglobin [Belcher J D, Chen C, Nguyen J, et al. (2014)], or TLR4-inhibitor (TAK242) [Belcher J D, Chen C, Nguyen J, et al. (2014)]. qFILM was conducted with a Nikon multiphoton excitation fluorescence microscope and an APO LWD 25×water immersion objective with 1.1 NA. […]

[1] = IV 10 μmole/kg oxy-Hb with inhibitor vs oxy-Hb alone, NSA 20 mg/kg
[2] = IV 10 μmole/kg oxy-Hb with inhibitor, NSA 20 mg/kg

COc1ccccc1-c1cc2n(n1)Cc1ccc(NC(C)=O)cc1OC2 [LDC7559]
Number of PVOs per Field of View (#PVOs/FOV) [1]: significantly less; also recorded: significantly reduced
number of large PVOs (with area>1000 μm^2) per FOV [1]: significantly less; also recorded: significantly reduced
blood flow in the lung (rapidly transiting erythrocytes) [2]: significantly improved
lung vaso-occlusion in representative qFILM images [2]: absence of lung vaso-occlusion; also recorded: lack of pulmonary vaso-occlusion
large neutrophil-platelet aggregates occluding the arteriolar bottle-necks in the lung (IV 10 μmole/kg oxy-Hb with inhibitor, Necrosulfonamide 20 mg/kg): rare

From patent US20240358721A1, “GASDERMIN-D INHIBITORS AND USES THEREOF FOR TREATING PULMONARY VASO-OCCLUSION” (UNIVERSITY OF PITTSBURGH-OF THE COMMONWEALTH SYSTEM OF …, priority 2021, published 2024)
